Measured values: US11684660B2, “Human PD1 peptide vaccines and uses thereof” (OHIO STATE INNOVATION FOUNDATION, priority 2017, dated 2023)
No end group written: not given here.

Assays:
Nivolumab = assay: BIACORE SPR binding to immobilized Nivolumab; details: 1 μM peptide; for SPR response of peptide binding to immobilized Nivolumab: 1 min at 10 μl/min
Procedure: (§1) 1 μM BSA was used as the negative control. The chip was regenerated by 10 mM Glycine-HCl, pH 2.5(FIG. 3E).
(§2) 1 μM of various PD-1 peptides were injected over the chip for 1 min at 10 μl/min followed by 1 min dissociation and then 1 min regeneration with 10 mM Glycine-HCl, pH 2.5 for each run.

[1] = molecular target: T1, extracellular domain of human PD-L1 (hPD-L1) (Homo sapiens, UniProt Q9NZQ7); assay: BIACORE SPR binding to immobilized rhPD-L1; details: 1 μM peptide; for SPR response of peptide binding to immobilized rhPD-L1: 1 min at 10 μl/min
T1 construct: Recombinant hPD-L1 ectodomain was immobilized onto the gold surface of a CM5 sensor chip
T1 sequence (Q9NZQ7 19-238 limits assumed): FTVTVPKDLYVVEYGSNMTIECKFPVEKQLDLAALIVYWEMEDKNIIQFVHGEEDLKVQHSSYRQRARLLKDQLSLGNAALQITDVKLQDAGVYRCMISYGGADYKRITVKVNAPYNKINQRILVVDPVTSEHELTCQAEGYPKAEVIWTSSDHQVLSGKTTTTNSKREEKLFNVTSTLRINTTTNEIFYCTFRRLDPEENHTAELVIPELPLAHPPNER
Procedure: To test the activity of all the selected peptides, surface plasmon resonance (SPR) spectroscopy (BIACORE™ T200, at […]) was used to measure their binding affinities to the extracellular domain of human PD-L1 (hPD-L1). Recombinant hPD-L1 ectodomain was immobilized onto the gold surface of a CM5 sensor chip by direct amine coupling.
as §1, §2

human IgG = assay: BIACORE SPR binding to immobilized human IgG; details: 1 μM injected 3 min at 10 μl/min
Procedure: 126. […] 1 μM BSA was used as the negative control. The chip was regenerated by 10 mM Glycine-HCl, pH 2.5(FIG. 3E).

[2] = system: murine colon carcinoma CT26 tumor cells; assay: CT26 tumor challenge in Balb/c mice immunized with PD-1 constructs; assay type: in vivo; details: for inhibition of tumor growth: Day 14, FIG. 15; for median terminal tumor weight: end of study; for median terminal tumor weight / median tumor size LWH, Day 19 / median tumor size LWW, Day 19 / median tumor size LWH, Day 14 / median tumor size LWW, Day 14: 5 mice/group; for difference in tumor size distribution versus controls: exact Wilcoxon rank-sum test, two-sided, unadjusted; for median tumor size LWH, Day 14: ½*length*width*height; for median tumor size LWW, Day 14: ½*length*width*width
Procedure: Immunocompetent Balb/c mice of 6-8 weeks of age were purchased from Charles River Laboratories, Wilmington, Mass. and housed in The Ohio State University's University Laboratory Animal Resources (ULAR) facilitates. Isoflurane was used to anaesthetize the animals before cells injection and termination. Pre-immune sera samples were taken from the mice then they were immunized with 100 μg of peptide emulsified in Montanide ISA 720 (Seppic, Paris, France) and nor-MDP adjuvant (N-acetyl-glucosamine-3 yl-acetyl L-alanyl-D-isoglutamine). Mice received booster immunizations 3 and 6 weeks after the first. Several test sera samples were taken from the mice (FIG. 8).
10 days after the second boost, mice were inoculated with […] murine colon carcinoma CT26 tumor cells subcutaneous on the right flank. Tumor growth was monitored three times a week and sera samples were taken weekly and upon sacrifice of the animal. Control mice on day 0 were engrated with 1×10^5 CT26 tumor cells subcutaneous and received. The animals received 150 μg injections of anti-mouse antibodies directed against PD-1. Mice were monitored and scored for the formation of palpable tumors twice weekly and sacrificed if tumors became necrotic or exceeded the predetermined size of 2,000 mm3. Tumor diameters were measured twice a week. Tumor size was calculated according to the formula: V=[(length ×width2)/2]. Tumor volumes were measured in cubic millimeters with calipers and calculated with the following formula: A×B2×0.5, where A is the largest diameter, and B is the smallest diameter. All experiments were performed in accordance with the U.S. Public Health Service Policy on Humane Care and Use of Laboratory Animals and approved by the Ohio State University Institutional Animals Care and Use Committee and detailed in the accepted protocol
To assess performance of 4 different vaccine treatments on tumor growth, tumor size was measured periodically in mice, and the results were compared to those of positive and negative controls. There were 5 mice in each treatment group, each receiving the assigned MVF-peptide and then being inoculated with 1e5 CT26 (colon) tumor cells 10 days after the final boost of the treatment. Day 14 was considered the primary time point of interest, as the investigators believed waiting until day 19 allowed the tumors too much time to grow, resulting in similar sizes at that point of the experiment. Tumor size was measured in three ways: LWW (½*length*width*width) at all time points, LWH (½*length*width*height) at all time points, and terminal tumor weight at the end of the study. The mice treated with MVF-PD-a(45), group C, were sacrificed before day 19 due to the death of one mouse, so the comparisons can only be made between tumor size at day 14. Tumor size is in units of mm3 for LWW and LWH and grams for terminal tumor weight.
Due to small sample sizes in each group and inability to assume normality, the exact Wilcoxon rank-sum test was used to check for systematic differences between the distributions of tumor size at times 14 days and 19 days (FIGS. 12A-D and Tables 7-10). P-values given are for test comparing that column's control to the respective treatment, and are two-sided to account for the possibility of tumor size being systematically larger or smaller between treatment and control. As this is preliminary data, the p-values are not adjusted for multiple comparisons. Overall, there were few instances of significant differences between the distributions of a control and a treatment.
Immunocompetent Balb/c mice (5 mice/gp) of 6-8 weeks of age were immunized with 100 μg of peptide emulsified in Montanide ISA 720 (Seppic, Paris, France) and nor-MDP adjuvant (N-acetyl-glucosamine-3 yl-acetyl L-alanyl-D-isoglutamine). […]

CD4+CD25+FoxP3+ Tregs = assay: Immune-profiling of T cells in spleen and tumor by flow cytometry; assay type: in vivo, Balb/c mice
Procedure: CD4 and CD8 cells were determined by flow cytometry (gated on CD45+CD3+ cells). Foxp3+CD25+CD4 T regulatory cells were determined by intracellular staining. All CD4 and CD8 T cells were gated on CD45+CD3+ cells. Tregs were gated on CD45+CD3+CD4+ cells. Group A=control peptide, Group B=32-50; Group C=45-64; Group D=73-90; Group E=92-110; Group F=α-mouse PD-1 (positive control).
The tumor and tumor draining lymph nodes were collected for subsequent FACS analysis to study the immune response in mice. Cells suspensions were prepared from tissues either by mechanistic dissociation or by enzymatic digestion. The stained cells were analyzed with a LSR II flow cytometer (BD Biosciences) equipped with 3 excitation lasers at wavelengths 405, 488 and 633 nm. CD8+ T cells and CD4+CD25+ T cells from tumor leucocytes were purified either on a MACS column or FACSAria.
Flow cytometric analysis was performed to evaluate the expression of surface markers (CD45, CD3, CD4, CD8 and CD25) and transcription factor FoxP3 in splenocytes and tumor infiltrating T cells. Briefly, spleens were removed from mice and pressed through cell strainers, followed by a short incubation with red blood cells lysis buffer to lyse the red blood cells. Cells were then collected, washed, and resuspended in staining buffer (1% BSA in PBS). Similarly, tumors were removed from mice and pressed through cell strainers, followed by one wash with 37% percoll. The tumor cells were then washed with PBS and resuspended in staining buffer. The splenocytes and tumor cells were incubated with mAbs to the cell-surface markers for 30 min at 4° C. After washing twice with staining buffer, cells were fixed and permeabilized using Cytofix/Cytoperm solution for 60 min at 4° C. Cells were stained for FoxP3 for 30 min at 4° C. 80,000-100,000 live cell events were acquired on a FACSCanto (BD) and analyzed using FlowJo software (Tree Star, Inc.). To differentiate infiltrating cells from tumor cells, the tumor cells were first gated on CD45+ cells. Then the CD3+CD4+ and CD3+CD8+ cells were analyzed. Tregs were represented by CD4+CD25+FoxP3+ cells. […] Group E had the lowest Treg.

“CH3CONH-KLAAFPEDRSQPGQDCRFR-CONH2 (Ac-KLAAFPEDRSQPGQDCRFR-NH2) [AC-PD-1 (45-64)]” was tested, and the “binding to immobilized Nivolumab (in words)” value (Nivolumab) was “bind” and the “binding to immobilized rhPD-L1 (in words)” value [1] was “bind”.

With “CH3CONH-GAISLAPKAQIKESLRAEL-CONH2 (Ac-GAISLAPKAQIKESLRAEL-NH2) [AC-PD-1 (92-110)]” the “binding to immobilized Nivolumab (in words)” value (Nivolumab) was “bind” and the “binding to immobilized rhPD-L1 (in words)” value [1] was “bind”.

For “rhPD-1: recombinant human PD-1 (hPD-1) ectodomain used to validate the sensor chip”, the “SPR response on immobilized human IgG (chip validation)” value (human IgG) was “didn't show any binding signal”.

“CH3CONH-DFHMSVVRARRNDSGTYL-CONH2 (Ac-DFHMSVVRARRNDSGTYL-NH2) [AC-PD-1 (73-90)]” was tested, and the “binding to immobilized Nivolumab (in words)” value (Nivolumab) was “bind” and the “binding to immobilized rhPD-L1 (in words)” value [1] was “bind”.

For “H2N-KLAAFPEDRSQPGQDCRFR-CONH2 (H-KLAAFPEDRSQPGQDCRFR-NH2) [PD-1 (45-64)]”, the “binding to immobilized Nivolumab (in words)” value (Nivolumab) was “second stronger binder” and the “binding to immobilized rhPD-L1 (in words)” value [1] was “second stronger binder”.

With “KLLSLIKGVIVHRLEGVE-GPSL-DFHMSVVRARRNDSGTYL-CONH2 (KLLSLIKGVIVHRLEGVEGPSLDFHMSVVRARRNDSGTYL-NH2) [MVF-PD-1 (73-90)]” the “binding to immobilized Nivolumab (in words)” value (Nivolumab) was “bind”, the “SPR response of peptide binding to immobilized Nivolumab” value (Nivolumab) was 1000 RU and the “inhibition of tumor growth” value [2] was “not inhibitory”. For the same substance, the “median terminal tumor weight” value [2] was 0.93 grams, the “difference in tumor size distribution versus controls” value (“difference” below) [2] was “no significant differences” and the “median tumor size LWH, Day 19” value [2] was 768 mm3. For the same substance, the “median tumor size LWW, Day 19” value [2] was 968 mm3, the “median tumor size LWH, Day 14” value [2] was 346.5 mm3 and the “median tumor size LWW, Day 14” value [2] was 405 mm3. For the same substance, the “binding to immobilized rhPD-L1 (in words)” value [1] was “bind” and the “SPR response of peptide binding to immobilized rhPD-L1” value [1] was “around 110 RU”.

In the case of “KLLSLIKGVIVHRLEGVE-GPSL-KLAAFPEDRSQPGQDCRFR-CONH2 (KLLSLIKGVIVHRLEGVEGPSLKLAAFPEDRSQPGQDCRFR-NH2) [MVF-PD-1 (45-64)]”, the “Treg population in spleen compared to Group A (negative control)” value (CD4+CD25+FoxP3+ Tregs; splenocytes, FIG. 10A) is reported as “increased Treg population”, the Tregs in tumor (CD4+CD25+FoxP3+ Tregs; tumor infiltrating cells, FIG. 10B) is reported as “increased Treg development in tumor microenvironment” and the “inhibition of tumor growth” value [2] is reported as “not inhibitory”. For the same substance, the “difference” value [2] was “no significant differences”, the “median tumor size LWH, Day 14” value [2] was 448 mm3 and the “median tumor size LWW, Day 14” value [2] was 550 mm3. The “binding to immobilized rhPD-L1 (in words)” value [1] was “bind” and the “SPR response of peptide binding to immobilized rhPD-L1” value [1] was “around 110 RU”.

In the case of “H2N-DFHMSVVRARRNDSGTYL-CONH2 (H-DFHMSVVRARRNDSGTYL-NH2) [PD-1 (73-90)]”, the “binding to immobilized Nivolumab (in words)” value (Nivolumab) is reported as “much stronger binding” and the “binding to immobilized rhPD-L1 (in words)” value [1] is reported as “much stronger binding”.

With “KLLSLIKGVIVHRLEGVE-GPSL-VLNWYRMSPSNQTDKLAAF-CONH2 (KLLSLIKGVIVHRLEGVEGPSLVLNWYRMSPSNQTDKLAAF-NH2) [MVF-PD-1 (32-50)]” the “SPR response of peptide binding to immobilized Nivolumab” value (Nivolumab) was 20 RU, the “median terminal tumor weight” value [2] was 0.92 grams and the “difference” value [2] was “no significant differences”. The “median tumor size LWH, Day 19” value [2] was 900 mm3, the “median tumor size LWW, Day 19” value [2] was 1080 mm3 and the “median tumor size LWH, Day 14” value [2] was 420 mm3. For the same substance, the “median tumor size LWW, Day 14” value [2] was 486 mm3.
